Measurements published in patent US6689773B2, “Uracil substituted phenyl sulfamoyl carboxamides” (BASF Aktiengesellschaft, priority 2000, dated 2004).

Assays:
Assay type in all cases: in vivo
[1] = system: IPOHE, Morningglory, Ivyleaf, Ipomoea hederacea, (L)Jacq.; experiment: Preemergence herbicidal evaluation (Example 148); conditions: rating scale 0-9, two to four weeks after treatment
In short: (§1)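 Following sowing, cups received a soil spray of the compound dissolved in aqueous acetone, dosed to about 0.125 to 0.250 kg per hectare. Growth continued in the greenhouse under routine care before visual scoring at two to four weeks.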

[2] = system: XANST, Cocklebur, Xanthium strumariam; experiment: Preemergence herbicidal evaluation (Example 148); conditions: rating scale 0-9, two to four weeks after treatment
In short: as §1

[3] = system: ALOMY, Blackgrass, Alopecurus myosuroides; experiment: Preemergence herbicidal evaluation (Example 148); conditions: rating scale 0-9, two to four weeks after treatment
In short: as §1

[4] = system: CHEAL, Lambsquarters, Chenopodium album, L. Common; experiment: Preemergence herbicidal evaluation (Example 148); conditions: rating scale 0-9, two to four weeks after treatment
In short: as §1

[5] = system: SETVI, Green foxtail, Setaria viridis, (L.)Beau; experiment: Preemergence herbicidal evaluation (Example 148); conditions: rating scale 0-9, two to four weeks after treatment
In short: as §1

[6] = system: DIGSA, Crabgrass, (Hairy) L, Digitaria sanguinalis, (L)Scop; experiment: Preemergence herbicidal evaluation (Example 148); conditions: rating scale 0-9, two to four weeks after treatment
In short: as §1

[7] = system: ZEAMX, Field corn, Zea mays L.; experiment: Preemergence herbicidal evaluation (Example 148); conditions: rating scale 0-9, two to four weeks after treatment
In short: as §1

[8] = system: ECHCG, Barnyardgrass, Echinochloa crusgalli, (L.)Beau; experiment: Preemergence herbicidal evaluation (Example 148); conditions: rating scale 0-9, two to four weeks after treatment
In short: as §1

[9] = system: AMBEL, Ragweed, Common, Ambrosia artemiisifolia, L.; experiment: Preemergence herbicidal evaluation (Example 148); conditions: rating scale 0-9, two to four weeks after treatment
In short: as §1

[10] = system: TRZAW, Winter wheat, Tritium Aestivum, L. (Winter); experiment: Preemergence herbicidal evaluation (Example 148); conditions: rating scale 0-9, two to four weeks after treatment
In short: as §1

[11] = system: ABUTH, Velvetleaf, Abutilon theophrasti, Medic.; experiment: Preemergence herbicidal evaluation (Example 148); conditions: rating scale 0-9, two to four weeks after treatment
In short: as §1

[12] = system: GLXMA, Soybean, Glycine max, (L.) Merr.; experiment: Preemergence herbicidal evaluation (Example 148); conditions: rating scale 0-9, two to four weeks after treatment
In short: as §1

[13] = system: IPOHE, Morningglory, Ivyleaf, Ipomoea hederacea, (L)Jacq.; experiment: Postemergence herbicidal evaluation (Example 147); conditions: rating scale 0-9, two to three weeks after treatment
In short: (§2)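 First, seedlings were raised for about two weeks. Next, they were sprayed at 40 psi with compound (about 0.016 to 0.032 kg/ha) in acetone/water 80/20 containing 1.0% methylated seed oil. Finally, after two to three greenhouse weeks, overall appearance versus control was rated 0-9, averaging repeat tests.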

[14] = system: XANST, Cocklebur, Xanthium strumariam; experiment: Postemergence herbicidal evaluation (Example 147); conditions: rating scale 0-9, two to three weeks after treatment
In short: as §2

[15] = system: ALOMY, Blackgrass, Alopecurus myosuroides; experiment: Postemergence herbicidal evaluation (Example 147); conditions: rating scale 0-9, two to three weeks after treatment
In short: as §2

[16] = system: CHEAL, Lambsquarters, Chenopodium album, L. Common; experiment: Postemergence herbicidal evaluation (Example 147); conditions: rating scale 0-9, two to three weeks after treatment
In short: as §2

[17] = system: SETVI, Green foxtail, Setaria viridis, (L.)Beau; experiment: Postemergence herbicidal evaluation (Example 147); conditions: rating scale 0-9, two to three weeks after treatment
In short: as §2

[18] = system: DIGSA, Crabgrass, (Hairy) L, Digitaria sanguinalis, (L)Scop; experiment: Postemergence herbicidal evaluation (Example 147); conditions: rating scale 0-9, two to three weeks after treatment
In short: as §2

[19] = system: ZEAMX, Field corn, Zea mays L.; experiment: Postemergence herbicidal evaluation (Example 147); conditions: rating scale 0-9, two to three weeks after treatment
In short: as §2

[20] = system: ECHCG, Barnyardgrass, Echinochloa crusgalli, (L.)Beau; experiment: Postemergence herbicidal evaluation (Example 147); conditions: rating scale 0-9, two to three weeks after treatment
In short: as §2

[21] = system: AMBEL, Ragweed, Common, Ambrosia artemiisifolia, L.; experiment: Postemergence herbicidal evaluation (Example 147); conditions: rating scale 0-9, two to three weeks after treatment
In short: as §2

[22] = system: TRZAW, Winter wheat, Tritium Aestivum, L. (Winter); experiment: Postemergence herbicidal evaluation (Example 147); conditions: rating scale 0-9, two to three weeks after treatment
In short: as §2

[23] = system: ABUTH, Velvetleaf, Abutilon theophrasti, Medic.; experiment: Postemergence herbicidal evaluation (Example 147); conditions: rating scale 0-9, two to three weeks after treatment
In short: as §2

[24] = system: GLXMA, Soybean, Glycine max, (L.) Merr.; experiment: Postemergence herbicidal evaluation (Example 147); conditions: rating scale 0-9, two to three weeks after treatment
In short: as §2

## C=CCN(C)S(=O)(=O)NC(=O)c1cc(-n2c(=O)cc(C(F)(F)F)n(C)c2=O)c(F)cc1Cl [Example 59]
[1]; rate 0.125 kg/ha
  Preemergence herbicidal rating IPOHE: 9.0
[1]; rate 0.25 kg/ha
  Preemergence herbicidal rating IPOHE: 9.0
[2]; rate 0.125 kg/ha
  Preemergence herbicidal rating XANST: 0.0
[2]; rate 0.25 kg/ha
  Preemergence herbicidal rating XANST: 9.0
[3]; rate 0.125 kg/ha
  Preemergence herbicidal rating ALMOY: 0.0
[3]; rate 0.25 kg/ha
  Preemergence herbicidal rating ALMOY: 4.0
[4]; rate 0.125 kg/ha
  Preemergence herbicidal rating CHEAL: 9.0
[4]; rate 0.25 kg/ha
  Preemergence herbicidal rating CHEAL: 9.0
[5]; rate 0.125 kg/ha
  Preemergence herbicidal rating SETVI: 4.0
[5]; rate 0.25 kg/ha
  Preemergence herbicidal rating SETVI: 9.0
[6]; rate 0.125 kg/ha
  Preemergence herbicidal rating DIGSA: 3.0
[6]; rate 0.25 kg/ha
  Preemergence herbicidal rating DIGSA: 7.0
[7]; rate 0.125 kg/ha
  Preemergence herbicidal rating ZEAMX: 0.0
[7]; rate 0.25 kg/ha
  Preemergence herbicidal rating ZEAMX: 2.0
[8]; rate 0.125 kg/ha
  Preemergence herbicidal rating ECHCG: 0.0
[8]; rate 0.25 kg/ha
  Preemergence herbicidal rating ECHCG: 3.0
[9]; rate 0.125 kg/ha
  Preemergence herbicidal rating AMBEL: 9.0
[9]; rate 0.25 kg/ha
  Preemergence herbicidal rating AMBEL: 9.0
[10]; rate 0.125 kg/ha
  Preemergence herbicidal rating TRZAW: 0.0
[10]; rate 0.25 kg/ha
  Preemergence herbicidal rating TRZAW: 0.0
[11]; rate 0.125 kg/ha
  Preemergence herbicidal rating ABUTH: 9.0
[11]; rate 0.25 kg/ha
  Preemergence herbicidal rating ABUTH: 9.0
[12]; rate 0.125 kg/ha
  Preemergence herbicidal rating GLXMA: 2.0
[12]; rate 0.25 kg/ha
  Preemergence herbicidal rating GLXMA: 8.0
[13]; rate 0.016 kg/ha
  Postemergence herbicidal rating IPOHE: 9.0
[13]; rate 0.032 kg/ha
  Postemergence herbicidal rating IPOHE: 9.0
[14]; rate 0.016 kg/ha
  Postemergence herbicidal rating XANST: 9.0
[14]; rate 0.032 kg/ha
  Postemergence herbicidal rating XANST: 9.0
[15]; rate 0.016 kg/ha
  Postemergence herbicidal rating ALMOY: 3.0
[15]; rate 0.032 kg/ha
  Postemergence herbicidal rating ALMOY: 4.0
[16]; rate 0.016 kg/ha
  Postemergence herbicidal rating CHEAL: 7.0
[16]; rate 0.032 kg/ha
  Postemergence herbicidal rating CHEAL: 8.0
[17]; rate 0.016 kg/ha
  Postemergence herbicidal rating SETVI: 7.0
[17]; rate 0.032 kg/ha
  Postemergence herbicidal rating SETVI: 8.0
[18]; rate 0.016 kg/ha
  Postemergence herbicidal rating DIGSA: 4.0
[18]; rate 0.032 kg/ha
  Postemergence herbicidal rating DIGSA: 5.0
[19]; rate 0.016 kg/ha
  Postemergence herbicidal rating ZEAMX: 8.0
[19]; rate 0.032 kg/ha
  Postemergence herbicidal rating ZEAMX: 8.0
[20]; rate 0.016 kg/ha
  Postemergence herbicidal rating ECHCG: 6.0
[20]; rate 0.032 kg/ha
  Postemergence herbicidal rating ECHCG: 7.0
[21]; rate 0.016 kg/ha
  Postemergence herbicidal rating AMBEL: 7.0
[21]; rate 0.032 kg/ha
  Postemergence herbicidal rating AMBEL: 9.0
[22]; rate 0.016 kg/ha
  Postemergence herbicidal rating TRZAW: 4.0
[22]; rate 0.032 kg/ha
  Postemergence herbicidal rating TRZAW: 4.5
[23]; rate 0.016 kg/ha
  Postemergence herbicidal rating ABUTH: 9.0
[23]; rate 0.032 kg/ha
  Postemergence herbicidal rating ABUTH: 9.0
[24]; rate 0.016 kg/ha
  Postemergence herbicidal rating GLXMA: 8.0
[24]; rate 0.032 kg/ha
  Postemergence herbicidal rating GLXMA: 8.5

## CC(C)N(C(C)C)S(=O)(=O)NC(=O)c1cc(-n2c(=O)cc(C(F)(F)F)n(C)c2=O)c(F)cc1Cl [Example 60]
[1]; rate 0.125 kg/ha
  Preemergence herbicidal rating IPOHE: 7.0
[1]; rate 0.25 kg/ha
  Preemergence herbicidal rating IPOHE: 6.0
[2]; rate 0.125 kg/ha
  Preemergence herbicidal rating XANST: 0.0
[2]; rate 0.25 kg/ha
  Preemergence herbicidal rating XANST: 4.0
[3]; rate 0.125 kg/ha
  Preemergence herbicidal rating ALMOY: 0.0
[3]; rate 0.25 kg/ha
  Preemergence herbicidal rating ALMOY: 0.0
[4]; rate 0.125 kg/ha
  Preemergence herbicidal rating CHEAL: 9.0
[4]; rate 0.25 kg/ha
  Preemergence herbicidal rating CHEAL: 9.0
[5]; rate 0.125 kg/ha
  Preemergence herbicidal rating SETVI: 5.0
[5]; rate 0.25 kg/ha
  Preemergence herbicidal rating SETVI: 9.0
[6]; rate 0.125 kg/ha
  Preemergence herbicidal rating DIGSA: 6.0
[6]; rate 0.25 kg/ha
  Preemergence herbicidal rating DIGSA: 6.0
[7]; rate 0.125 kg/ha
  Preemergence herbicidal rating ZEAMX: 0.0
[7]; rate 0.25 kg/ha
  Preemergence herbicidal rating ZEAMX: 0.0
[8]; rate 0.125 kg/ha
  Preemergence herbicidal rating ECHCG: 0.0
[8]; rate 0.25 kg/ha
  Preemergence herbicidal rating ECHCG: 4.0
[9]; rate 0.125 kg/ha
  Preemergence herbicidal rating AMBEL: 9.0
[9]; rate 0.25 kg/ha
  Preemergence herbicidal rating AMBEL: 9.0
[10]; rate 0.125 kg/ha
  Preemergence herbicidal rating TRZAW: 0.0
[10]; rate 0.25 kg/ha
  Preemergence herbicidal rating TRZAW: 0.0
[11]; rate 0.125 kg/ha
  Preemergence herbicidal rating ABUTH: 9.0
[11]; rate 0.25 kg/ha
  Preemergence herbicidal rating ABUTH: 9.0
[12]; rate 0.125 kg/ha
  Preemergence herbicidal rating GLXMA: 0.0
[12]; rate 0.25 kg/ha
  Preemergence herbicidal rating GLXMA: 6.0
[13]; rate 0.016 kg/ha
  Postemergence herbicidal rating IPOHE: 9.0
[13]; rate 0.032 kg/ha
  Postemergence herbicidal rating IPOHE: 9.0
[14]; rate 0.016 kg/ha
  Postemergence herbicidal rating XANST: 9.0
[14]; rate 0.032 kg/ha
  Postemergence herbicidal rating XANST: 9.0
[15]; rate 0.016 kg/ha
  Postemergence herbicidal rating ALMOY: 3.0
[15]; rate 0.032 kg/ha
  Postemergence herbicidal rating ALMOY: 3.0
[16]; rate 0.016 kg/ha
  Postemergence herbicidal rating CHEAL: 8.0
[16]; rate 0.032 kg/ha
  Postemergence herbicidal rating CHEAL: 9.0
[17]; rate 0.016 kg/ha
  Postemergence herbicidal rating SETVI: 8.0
[17]; rate 0.032 kg/ha
  Postemergence herbicidal rating SETVI: 9.0
[18]; rate 0.016 kg/ha
  Postemergence herbicidal rating DIGSA: 6.0
[18]; rate 0.032 kg/ha
  Postemergence herbicidal rating DIGSA: 7.0
[19]; rate 0.016 kg/ha
  Postemergence herbicidal rating ZEAMX: 8.0
[19]; rate 0.032 kg/ha
  Postemergence herbicidal rating ZEAMX: 8.0
[20]; rate 0.016 kg/ha
  Postemergence herbicidal rating ECHCG: 8.0
[20]; rate 0.032 kg/ha
  Postemergence herbicidal rating ECHCG: 7.0
[21]; rate 0.016 kg/ha
  Postemergence herbicidal rating AMBEL: 9.0
[21]; rate 0.032 kg/ha
  Postemergence herbicidal rating AMBEL: 9.0
[22]; rate 0.016 kg/ha
  Postemergence herbicidal rating TRZAW: 6.0
[22]; rate 0.032 kg/ha
  Postemergence herbicidal rating TRZAW: 6.0
[23]; rate 0.016 kg/ha
  Postemergence herbicidal rating ABUTH: 9.0
[23]; rate 0.032 kg/ha
  Postemergence herbicidal rating ABUTH: 9.0
[24]; rate 0.016 kg/ha
  Postemergence herbicidal rating GLXMA: 8.5
[24]; rate 0.032 kg/ha
  Postemergence herbicidal rating GLXMA: 8.5
